# Tests used:
# neuronal out growth = conditions: cited from earlier work
# cholera toxin = cholera toxin (Vibrio cholerae serotype O1, UniProt P01556); conditions: cited from earlier work
# human placenta = experiment: Placental transfer trial, dual perfused human placental lobules (Example 3); type: in vitro ADME
# Text: Dual perfused human lobules were taken from six placentae of uncomplicated term pregnancies (normal elective Caesarean patients). Maternal and fetal arterial and venous supplies were isolated, catheterised and the placenta maintained by perfusion of sterile krebs buffer (that also contains serum albumin to aid transport of lipophilic substances) at room temperature in a sterile air perfusion chamber at constant flow rate and pressure. The perfusion technique used was modified from Glance et al (1984) according to Collier et al (2004).
# Equilibration was performed for 60 min to assess physical integrity of tissue and circuits (fetal arterial pressure <40 mmHg and leakage of perfusate from fetal to maternal circuit <2 ml/h) then the maternal and fetal reservoirs replaced with fresh media containing doses of test substances. Time zero and then hourly samples are collected from all circuits and stored frozen for analysis. Metabolic viability of the preparation is assessed with samples collected hourly from maternal and fetal arteries and analysed for oxygen and carbon dioxide saturation, electrolytes and glucose consumption (Bayer 865 Blood Gas Analyzer, Bayer Diagnostics and lactate production (Hitachi 917, Roche Diagnostics). 10 μg/mL of milk-derived ganglioside mixture (GM3+GD3—isolated from G600™ precursor described above) was added to the maternal reservoir. Perfusion was conducted for up to 3 hours using a closed loop system. Samples were taken from both reservoirs at that point (t=0) and at regular time-points, snap frozen in liquid nitrogen, and subsequently assayed for GM3, GD3, and lobule viability.
# GM3 and GD3 contents of the perfusates were measured by LC-MS using a Hypersil APS2 column, normal phase acetonitrile gradient and detected in the LTQ orbitrap in negative ion full scan, as described below. Perfusate samples were “protein crashed” by addition into methanol, allowed to stand for 60 min at 4° C. before centrifugation (20,000×g). An aliquot (10-50 μL) was loaded onto an online C18 trap, washed (50% MeOH), before eluted onto a Hypersil APS2 column (Thermo Finnigan, MA, USA). Gangliosides were separated on a normal phase gradient, and detected in the LTQ Orbitrap Mass spectrometer (ThermoFinnigan, Ma, USA) in negative ion mode. The LC-MS system was calibrated using GD3 and GM3 standards purchased from Matreya (Pa, USA). Lobule viability was assessed by Glucose uptake and lactate production, measured with an Autoanalyzer.
# [1] = rats (Hungund et al, 1993); cited from earlier work
# [2] = 10 μg/mL GM3+GD3 mixture in maternal reservoir, perfusion up to 3 hours
# Sequence of cholera toxin (P01556 22-124 limits assumed): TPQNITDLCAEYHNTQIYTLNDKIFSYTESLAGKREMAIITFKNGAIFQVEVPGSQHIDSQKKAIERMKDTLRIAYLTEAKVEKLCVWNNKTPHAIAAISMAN
substance,measurement,setting,value
9-O-acetyl GD3 [reference compound],effect on neuronal out growth,neuronal out growth,promotes
GD1a,binding of cholera toxin,cholera toxin,negligible binding
GD3,concentrations in foetal perfusate,human placenta; LC-MS,below assay sensitivity
same,reduction in maternal concentrations,"human placenta; average, all cases",25-30%
same,effect on neuronal out growth,neuronal out growth,does not
GM2,binding of cholera toxin,cholera toxin,negligible binding
GM3,increase of foetal perfusate concentration over time,human placenta; [2],approximately 6 fold
same,transfer across the human placenta,human placenta; [2],evidence of transfer
same,reduction of maternal perfusate concentration,"human placenta; on average, from the starting maternal concentration",half
same,maternal perfusate concentration before reduction,human placenta; starting level in maternal perfusate,approximately 300 ng/ml
Ganglioside GM1a,crossing of the placenta,[1],cross the placenta
ganglioside GM1,binding of cholera toxin,cholera toxin,specific
